From US4342751A (priority 1981, dated 1982)
Numbered stars: 1 amine (or outer) side, 2 acyl side, 3 side chain; on linkers, the order of the positions; unused ones are H or OH. Square brackets hold non-standard residues; d marks the D form. Peptide text beside a SMILES is read from it. X1 = CCC(N[*:1])C(C)C(=O)O[C@H](C(=O)[*:2])[C@@H](C)CC; X2 = C[C@H](N[*:1])C(=O)C(C)(C)C(=O)[*:2]; NMeY = CN[C@@H](Cc1ccc(O)cc1)C(=O)O; NMeI = CC[C@H](C)[C@H](NC)C(=O)O; NMeV = CN[C@H](C(=O)O)C(C)C

Tests used:
[1] = tested on: Grape leaves (C. V. Niagara); details: in vivo

CCC1NC(=O)[C@H](C)NC(=O)C(C)(C)C(=O)[C@H](C)NC(=O)[C@H](Cc2ccc(OC)cc2)N(C)C(=O)[C@H](C(C)C)N(C)C(=O)CNC(=O)[C@H]([C@@H](C)CC)N(C)C(=O)CNC(=O)[C@H]([C@@H](C)CC)OC(=O)C1C (stereo partly drawn) [Majusculamide C, majusculamide C] (cyclo(A[X1]G[NMeI]G[NMeV][NMeY](Me)[X2]))
In vivo effectiveness against grape downy mildew (Plasmopora viticola): effective | Control of fungus (Plasmopora viticola; in vivo): control | Phytotoxicity rating, grape leaves [1]: 0
